{"source": "ChEMBL document CHEMBL1141123", "about": "“Hydroxyethylene sulfones as a new scaffold to address aspartic proteases: design, synthesis, and structural characterization” (J Med Chem, 2005)", "key": {"[1]": {"target": "T1, Human immunodeficiency virus type 1 protease (Human immunodeficiency virus 1, UniProt Q72874)", "assay": "Binding affinity for HIV-1 protease expressed in Escherichia coli upon incubation in pH 5.5 buffer containing Abz-Thr-Ile-p-nitrophenylalanine-Phe-Gln-Arg-NH2"}, "[2]": {"target": "T1, Human immunodeficiency virus type 1 protease", "assay": "Inhibitory concentration against HIV-1 protease expressed in Escherichia coli upon incubation in pH 5.5 buffer containing Abz-Thr-Ile-p-nitrophenylalanine-Phe-Gln-Arg-NH2"}, "Cathepsin D": {"target": "Cathepsin D (Homo sapiens, UniProt P07339)", "assay": "Binding affinity af the compound towards cathepsin D"}}, "note": "“And” between values parts separate entries of the source, which are not always exact repeats. Equal entries are not always repeated.", "data": [{"smiles": "Cc1cccc(C)c1OCC(=O)N[C@H](Cc1cccc(Br)c1)[C@@H](O)C[C@@H](CC(C)C)S(=O)(=O)c1ccc(F)cc1", "values": [{"measurement": "Ki", "setting": "[1]", "value": 1400, "unit": "nM"}, {"measurement": "IC50", "setting": "[2]", "value": 2000, "unit": "nM"}]}, {"smiles": "O=C(N[C@H](Cc1cccc(Br)c1)[C@@H](O)C[C@@H](CCc1ccc(Cl)cc1Cl)S(=O)(=O)c1ccc(F)cc1)[C@H]1CCCO1", "values": [{"measurement": "Ki", "setting": "[1]", "value": "> 40000", "unit": "nM"}, {"measurement": "IC50", "setting": "[2]", "value": "> 40000", "unit": "nM"}]}, {"smiles": "O=C(N[C@@H](Cc1cccc(Br)c1)[C@H](O)C[C@H](CCc1ccc(Cl)cc1Cl)S(=O)(=O)c1ccc(F)cc1)[C@H]1CCCO1", "values": [{"measurement": "Ki", "setting": "[1]", "value": "3900 nM and 2900 nM"}]}, {"smiles": "Cc1cccc(C)c1OCC(=O)N[C@@H](Cc1cccc(Br)c1)[C@H](O)C[C@H](CC(C)C)S(=O)(=O)c1ccc(F)cc1", "values": [{"measurement": "Ki", "setting": "[1]", "value": "80 nM and 45 nM"}, {"measurement": "IC50", "setting": "[2]", "value": "140 nM and 85 nM"}]}, {"smiles": "CC(C)CCS(=O)(=O)[C@@H](C)C[C@@H](O)[C@H](Cc1cccc(Br)c1)NC(=O)CCS(C)(=O)=O", "values": [{"measurement": "Ki", "setting": "[1]", "value": "> 40000", "unit": "nM"}, {"measurement": "IC50", "setting": "[2]", "value": "> 40000", "unit": "nM"}]}, {"smiles": "COc1cc(Br)c(C(=O)N[C@@H](Cc2cccc(Br)c2)[C@H](O)C[C@H](CCc2ccc(Cl)cc2Cl)S(=O)(=O)c2ccc(F)cc2)cc1OC", "values": [{"measurement": "Ki", "setting": "[1]", "value": 3100, "unit": "nM"}, {"measurement": "IC50", "setting": "[2]", "value": 4500, "unit": "nM"}]}, {"smiles": "CNc1ccc(S(=O)(=O)[C@@H](CC(C)C)C[C@@H](O)[C@H](Cc2cccc(Br)c2)NC(=O)COc2c(C)cccc2C)cc1", "values": [{"measurement": "Ki", "setting": "[1]", "value": 370, "unit": "nM"}, {"measurement": "IC50", "setting": "[2]", "value": 530, "unit": "nM"}]}, {"smiles": "Cc1cccc(C)c1OCC(=O)N[C@@H](Cc1cccc(Br)c1)[C@H](O)C[C@H](CC(C)C)S(=O)(=O)c1ccc(N(C)C)cc1", "values": [{"measurement": "Ki", "setting": "[1]", "value": 540, "unit": "nM"}, {"measurement": "IC50", "setting": "[2]", "value": 790, "unit": "nM"}]}, {"smiles": "O=C(COc1ccc(Cl)cc1Cl)N[C@@H](Cc1cccc(Br)c1)[C@H](O)C[C@H](CCc1ccc(Cl)cc1Cl)S(=O)(=O)c1ccc(F)cc1", "values": [{"measurement": "Ki", "setting": "[1]", "value": 7000, "unit": "nM"}, {"measurement": "IC50", "setting": "[2]", "value": 10000, "unit": "nM"}]}, {"smiles": "COc1cc(Br)c(C(=O)N[C@@H](Cc2cccc(Oc3ccccc3)c2)[C@@H](O)CN(CCc2ccc(Cl)cc2Cl)C(=O)CCN2C(=O)c3ccccc3C2=O)cc1OC", "values": [{"measurement": "Ki", "setting": "Cathepsin D", "value": 0.07, "unit": "nM"}]}, {"smiles": "CC(C)CN(C[C@@H](O)[C@H](Cc1ccccc1)NC(=O)O[C@H]1CCOC1)S(=O)(=O)c1ccc(N)cc1", "note": "[AMPRENAVIR]", "values": [{"measurement": "Ki", "setting": "[1]", "value": 0.06, "unit": "nM"}]}]}
